Results taken from paper PMC7497086, “Fluorophore‐Labeled Cyclic Nucleotides as Potent Agonists of Cyclic Nucleotide‐Regulated Ion Channels” (Chembiochem, 2020).
Several values for one entry are separate records, joined by “and”; a condition that tells them apart may be missing. Equal entries are not always repeated. Entries after “also recorded” stand apart in the source; their conditions may differ.

Tests used:
Format in all cases: biochemical
[1] = biological target: T1, Homotetrameric CNGA2 channels (Rattus norvegicus, UniProt Q00195); test: Patch-clamp activation of homotetrameric CNGA2 channels, inside-out patches of Xenopus oocytes; settings: for H a (Hill coefficient of activation) / EC50: inside-out patches; for EC50: concentration of half maximum activation
T1 construct: expressed in transfected cells; host or cells: Xenopus laevis oocytes injected with CNGA2 cRNA
T1 sequence (Q00195 1-664): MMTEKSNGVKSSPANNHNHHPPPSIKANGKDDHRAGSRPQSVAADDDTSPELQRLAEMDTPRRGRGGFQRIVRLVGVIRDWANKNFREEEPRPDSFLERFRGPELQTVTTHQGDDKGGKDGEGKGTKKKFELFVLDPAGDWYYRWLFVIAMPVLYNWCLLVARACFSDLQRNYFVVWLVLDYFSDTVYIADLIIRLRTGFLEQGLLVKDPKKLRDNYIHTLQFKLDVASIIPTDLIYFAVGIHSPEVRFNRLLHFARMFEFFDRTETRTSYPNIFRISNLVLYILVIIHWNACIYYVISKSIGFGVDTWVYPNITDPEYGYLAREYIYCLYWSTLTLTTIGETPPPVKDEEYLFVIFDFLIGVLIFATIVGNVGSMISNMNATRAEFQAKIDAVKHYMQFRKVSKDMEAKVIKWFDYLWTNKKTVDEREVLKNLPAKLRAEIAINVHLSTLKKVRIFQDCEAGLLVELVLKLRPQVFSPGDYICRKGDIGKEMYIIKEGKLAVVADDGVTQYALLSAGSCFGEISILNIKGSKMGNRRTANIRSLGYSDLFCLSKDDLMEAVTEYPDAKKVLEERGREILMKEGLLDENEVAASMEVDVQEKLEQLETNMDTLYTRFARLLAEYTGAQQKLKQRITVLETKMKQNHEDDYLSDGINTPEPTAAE
Text: Moreover, we studied the effect of the nucleotide derivatives on homotetrameric CNGA2 channels.
(§1) Molecular biology and heterologous expression of CNG and HCN channels: The subunits CNGA2 (accession No. AF126808), CNGA4 (accession no. U12623) and CNGB1b (accession no. AF068572) of rat olfactory channels as well as mouse HCN2 channels (NM008226) were subcloned in front of the T7 promoter of pGEMHEnew. The corresponding cRNAs were produced with the mMESSAGE mMACHINE T7 Kit (Ambion, Austin, TX, USA).
(§2) Oocytes at stages IV and V were injected with 50–130 ng cRNA encoding either CNGA2, CNGA2 : CNGA4 : CNGB1b (2 : 1 : 1 ratio) or HCN2 channels either manually or mediated by an injection robot (RoboInject®). The injected oocytes were incubated at 18 °C for up to 6 days in Barth's medium containing (in mM) 84 NaCl, 1 KCl, 2.4 NaHCO3, 0.82 MgSO4, 0.41 CaCl2, 0.33 Ca(NO3)2, 7.5 TRIS, cefuroxime (4.0 μg/mL) and penicillin/streptomycin (100 μg/mL), pH 7.4.
(§3) Electrophysiology: Macroscopic currents were recorded in inside‐out patches of the oocytes expressing hundreds to several thousand of the desired channels by using the patch‐clamp technique. The patch pipettes were pulled from quartz tubing (P‐2000, Sutter Instrument, Novato, USA) with an outer and inner diameter of 1.0 and 0.7 mm (VITROCOM, New Jersey, USA). The corresponding pipette resistance was 0.9–2.3 MΩ. The bath and pipette solution contained (in mM): 150 KCl, 1 EGTA, 20 HEPES (pH 7.4) for CNG channel measurements. For HCN channel measurements the bath solution contained (in mM): 100 KCl, 10 EGTA, 10 HEPES (pH 7.2) and the pipette (in mM) 120 KCl, 10 HEPES, 1 CaCl2 (pH 7.2). All experiments were performed at room temperature by using an Axopatch 200B amplifier (Axon Instruments, Foster City, CA, USA). Electrophysiology was controlled by the Patchmaster‐software (HEKA Elektronik Dr. Schulze GmbH, Lambrecht, Germany). The sampling rate was 5 kHz and the filter implemented in the amplifier (4‐pole Bessel) was set to 2 kHz. Measurements in HCN2 channels were started 3.5 minutes after patch excision, to minimize run down phenomena.18 The solutions with the different ligand concentrations to be studied were applied by a multi‐barrel device to the patches with a flow rate of 0.8 to 1.2 mL/min. The concentration of the fluorescent ligands was verified by UV/Vis spectroscopy.
(§4) where I is the actual current amplitude and I max the maximum current amplitude at saturating concentration of each cyclic nucleotide. EC 50 is the ligand concentration generating half maximum current and H a the respective Hill coefficient.

[2] = biological target: T2, Heterotetrameric CNGA2:A4:B1b channels (Rattus norvegicus, UniProt A0A8I5ZN27+Q00195+Q64359); test: Patch-clamp activation of heterotetrameric olfactory CNGA2:A4:B1b channels, inside-out patches of Xenopus oocytes; settings: for H a (Hill coefficient of activation) / EC50: inside-out patches, +10 mV; for EC50: concentration of half maximum activation
T2 construct: expressed in transfected cells; host or cells: Xenopus laevis oocytes injected with cRNA (CNGA2:CNGA4:CNGB1b at 2:1:1)
Procedure: First, the effect of the compounds on olfactory CNG channels with natural composition was tested. […] To determine the potency of the ligands, full concentration‐activation relationships were generated. These relationships were fitted with Equation 1 (Experimental Section), yielding the concentration of half maximum activation (EC 50) and the Hill coefficient (H a).
as §1, §2, §3, §4

[3] = biological target: T3, homotetrameric HCN2 channels (Mus musculus, UniProt O88703); test: Patch-clamp activation of homotetrameric HCN2 channels, inside-out patches of Xenopus oocytes; settings: 5 μM ligand; pulse from -30 mV to -130 mV; compared with saturating cAMP (20 μM)
T3 construct: expressed in transfected cells; host or cells: Xenopus laevis oocytes injected with HCN2 cRNA
T3 sequence (O88703 1-863): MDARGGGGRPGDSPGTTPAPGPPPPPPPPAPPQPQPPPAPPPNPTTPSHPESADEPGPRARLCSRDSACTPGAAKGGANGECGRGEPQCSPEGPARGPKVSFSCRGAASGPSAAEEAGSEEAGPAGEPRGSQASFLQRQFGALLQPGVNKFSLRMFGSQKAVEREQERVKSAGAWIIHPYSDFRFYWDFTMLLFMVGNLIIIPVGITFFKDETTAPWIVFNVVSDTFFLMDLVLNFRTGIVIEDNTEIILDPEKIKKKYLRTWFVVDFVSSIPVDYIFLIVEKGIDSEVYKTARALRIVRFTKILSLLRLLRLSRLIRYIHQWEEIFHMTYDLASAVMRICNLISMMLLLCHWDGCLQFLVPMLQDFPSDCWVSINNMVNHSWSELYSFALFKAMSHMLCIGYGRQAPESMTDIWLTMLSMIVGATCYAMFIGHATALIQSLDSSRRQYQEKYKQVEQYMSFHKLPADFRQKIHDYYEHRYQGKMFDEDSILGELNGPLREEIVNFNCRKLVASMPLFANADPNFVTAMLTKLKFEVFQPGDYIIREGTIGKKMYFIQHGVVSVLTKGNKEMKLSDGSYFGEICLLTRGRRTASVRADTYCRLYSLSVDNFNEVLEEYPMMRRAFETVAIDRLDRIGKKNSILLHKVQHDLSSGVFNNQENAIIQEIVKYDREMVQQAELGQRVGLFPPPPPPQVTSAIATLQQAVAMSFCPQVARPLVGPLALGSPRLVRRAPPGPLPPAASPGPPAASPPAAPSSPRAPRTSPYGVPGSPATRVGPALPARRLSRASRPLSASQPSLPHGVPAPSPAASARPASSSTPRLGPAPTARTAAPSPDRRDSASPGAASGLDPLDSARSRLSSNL
Procedure: On these channels the potency of cGMP and its derivatives is negligibly small. These measurements were performed in inside‐out patches as well. The channels were activated from a holding potential of −30 mV by a hyperpolarizing voltage pulse to −130 mV, followed by a short pulse to −100 mV, as described in the inset of Figure 3A. All recordings were carried out in the absence of a ligand at first and then with a solution containing 5 μM of the cyclic nucleotide to be tested.
as §1
The oocytes were incubated for 105 min in Ca^2+‐free Barth's solution containing collagenase A (3 mg/mL; Roche, Grenzach‐Wyhlen, Germany) and (in mM) 82.5 NaCl, 2 KCl, 1 MgCl2, 5 HEPES, pH 7.4. […]
Electrophysiology: Macroscopic currents were recorded in inside‐out patches of the oocytes expressing hundreds to several thousand of the desired channels by using the patch‐clamp technique. […]

T2 sequence (Q64359 whole entry, one chain of several): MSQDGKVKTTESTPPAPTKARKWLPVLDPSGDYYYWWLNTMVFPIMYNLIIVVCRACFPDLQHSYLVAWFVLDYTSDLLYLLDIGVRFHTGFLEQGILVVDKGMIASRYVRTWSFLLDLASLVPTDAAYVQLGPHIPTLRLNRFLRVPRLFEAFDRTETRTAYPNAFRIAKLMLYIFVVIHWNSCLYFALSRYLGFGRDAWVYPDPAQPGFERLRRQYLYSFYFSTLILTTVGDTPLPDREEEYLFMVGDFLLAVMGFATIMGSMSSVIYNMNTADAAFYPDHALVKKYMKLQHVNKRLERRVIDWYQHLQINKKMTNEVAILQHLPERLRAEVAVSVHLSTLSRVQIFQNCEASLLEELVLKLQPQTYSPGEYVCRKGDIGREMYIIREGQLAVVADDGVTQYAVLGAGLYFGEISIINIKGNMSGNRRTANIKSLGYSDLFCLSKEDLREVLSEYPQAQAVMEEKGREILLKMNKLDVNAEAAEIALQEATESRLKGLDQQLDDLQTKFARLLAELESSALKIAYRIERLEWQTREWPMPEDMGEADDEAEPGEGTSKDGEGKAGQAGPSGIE
T2 sequence (A0A8I5ZN27 1-858 isoform A0A8I5ZN27-2, one chain of several): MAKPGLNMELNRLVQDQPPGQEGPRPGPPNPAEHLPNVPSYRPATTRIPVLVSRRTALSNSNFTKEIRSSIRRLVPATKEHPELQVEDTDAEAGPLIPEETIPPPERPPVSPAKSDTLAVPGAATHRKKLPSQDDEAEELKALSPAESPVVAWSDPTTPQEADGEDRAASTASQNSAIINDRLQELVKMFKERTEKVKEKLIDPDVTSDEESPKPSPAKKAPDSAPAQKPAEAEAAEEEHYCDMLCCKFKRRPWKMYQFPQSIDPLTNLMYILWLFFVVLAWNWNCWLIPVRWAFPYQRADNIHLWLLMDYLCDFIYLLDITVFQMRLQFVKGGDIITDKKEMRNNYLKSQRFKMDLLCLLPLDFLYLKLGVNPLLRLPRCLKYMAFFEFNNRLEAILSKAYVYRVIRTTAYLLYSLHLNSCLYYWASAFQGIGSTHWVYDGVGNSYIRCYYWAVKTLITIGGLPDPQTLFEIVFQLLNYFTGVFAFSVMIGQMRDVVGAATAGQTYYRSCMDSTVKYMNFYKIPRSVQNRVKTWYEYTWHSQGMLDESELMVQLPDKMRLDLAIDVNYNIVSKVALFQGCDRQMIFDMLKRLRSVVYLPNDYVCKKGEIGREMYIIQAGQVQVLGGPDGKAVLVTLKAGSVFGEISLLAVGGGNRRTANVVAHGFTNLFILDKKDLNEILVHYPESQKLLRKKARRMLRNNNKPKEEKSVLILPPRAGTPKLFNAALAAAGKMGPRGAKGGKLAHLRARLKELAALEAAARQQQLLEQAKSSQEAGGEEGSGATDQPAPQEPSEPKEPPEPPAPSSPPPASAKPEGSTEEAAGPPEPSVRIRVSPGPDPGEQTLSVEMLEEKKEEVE

H a (Hill coefficient of activation) [1] | EC50 [1] | H a (Hill coefficient of activation) [2] | EC50 [2] | EC 50 (in words) [1] | effect at elevated concentrations ([2]; elevated concentrations) | agonist efficacy ([2]; current maxima normalized to saturating cAMP (500 μM)) | SMILES | effect on HCN2 current (activation speed and current amplitude) [3] | efficacy of channel activation ([1]; relative to maximum activation)
2.28±0.28 | 2410 ± 150 nM | 1.74±0.11 | 7020 ± 260 nM |  |  |  | NCCCCCc1ccc(-c2nc3c(=O)[nH]c(N)nc3n2[C@@H]2O[C@@H]3COP(=O)(O)O[C@H]3[C@H]2O)cc1 [Compound 13] |  | 
2.48±0.05 | 1770 ± 20 nM | 2.11±0.23 | 1360 ± 70 nM |  |  |  | Nc1nc2c(ncn2[C@@H]2O[C@@H]3COP(=O)(O)O[C@H]3[C@H]2O)c(=O)[nH]1 [cGMP, reference compound] |  | 
2.52±0.08 | 250 ± 10 nM | 1.55±0.08 | 370 ± 10 nM | nanomolar range |  |  | NCCCCCc1ccc(Sc2nc3c(=O)[nH]c(N)nc3n2[C@@H]2O[C@@H]3COP(=O)(O)O[C@H]3[C@H]2O)cc1 [Compound 9] |  | 
2.51±0.05 | 4720 ± 40 nM | 2.25±0.08 | 750 ± 10 nM |  | inhibitory effect |  | NCCCCCc1ccc(Sc2nc3c(N)ncnc3n2[C@@H]2O[C@@H]3COP(=O)(O)O[C@H]3[C@H]2O)cc1 [Compound 6] | accelerated the current and enhanced the amplitude | 
2.14±0.10 | 16300 ± 500 nM | 2.23±0.05 | 10700 ± 100 nM |  |  | only a partial agonist | NCCCCCc1ccc(-c2nc3c(N)ncnc3n2[C@@H]2O[C@@H]3COP(=O)(O)O[C@H]3[C@H]2O)cc1 [Compound 12] | no effect; also recorded: almost ineffective | 
1.39 and 1.39±0.07 | 10000 ± 500 nM | 2.26±0.29 | 900 ± 40 nM |  |  |  | CC1(C)C2=C3C=C4C5=[N+](CCC4OC3CCN2c2ccc(CC(=O)NCCCCCc3ccc(Sc4nc6c(N)ncnc6n4[C@@H]4O[C@@H]6COP(=O)(O)O[C@H]6[C@H]4O)cc3)cc21)c1ccc(S(=O)(=O)[O-])cc1C5(C)C (stereo partly shown) [Compound 7] |  | did not generate maximum activation at 100 μM

SMILES | H a (Hill coefficient of activation) [1] | EC50 [1] | H a (Hill coefficient of activation) [2] | EC50 [2] | EC 50 (in words) [1] | effect at elevated concentrations ([2]; elevated concentrations) | agonist efficacy ([2]; current maxima normalized to saturating cAMP (500 μM)) | effect on HCN2 current (activation speed and current amplitude) [3] | efficacy of channel activation ([1]; relative to maximum activation)
Nc1ncnc2c1ncn2[C@@H]1O[C@@H]2COP(=O)(O)O[C@H]2[C@H]1O [cAMP, reference compound] |  |  | 2.08±0.12 |  |  |  |  |  | 
